US20240238423A9, “TETRAHYDROISOQUINOLINE HETEROBIFUNCTIONAL BCL-XL DEGRADERS” (Treeline Biosciences, Inc., priority 2022, published 2024)
Where two headings read alike, the source gives them in different places.

Molecular target: T1, Human BCL-XL protein (N-terminal HiBiT tagged BCL-XL in HT1080 cells) (Homo sapiens, UniProt Q07817)
T1 construct: expressed in transfected cells; host or cells: HT-1080 (ATCC CCL-121), stably transduced with lentivirus pLV-UBC-N-HiBiT-BCL-XL-PGK-puro and selected with puromycin
T1 sequence (Q07817 whole entry): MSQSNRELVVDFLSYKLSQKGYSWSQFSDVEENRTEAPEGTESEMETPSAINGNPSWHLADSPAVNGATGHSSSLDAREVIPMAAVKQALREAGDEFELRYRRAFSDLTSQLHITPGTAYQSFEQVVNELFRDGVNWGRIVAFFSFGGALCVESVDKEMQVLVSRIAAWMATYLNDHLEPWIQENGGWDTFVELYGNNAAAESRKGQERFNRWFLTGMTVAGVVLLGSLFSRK
Assay: HiBiT based degradation assay
Format: cell-based
Conditions: HT1080 cells expressing HiBiT-BCL-XL; for DC50: BCL-XL degradation
Outline: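 This HiBiT degradation assay measured loss of BCL-XL in HT1080 cells that stably express an N-terminal HiBiT-BCL-XL fusion delivered by lentivirus. Cells were added to compound-spotted 384-well plates, and luminescence was read on a PHERAstar FSX reader. Signal was expressed relative to DMSO controls, curves were fitted by four-parameter logistic regression, and for hook-shaped curves the Ymin point served as the bottom plateau when calculating EC50.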

[1] = BCL-XL degradation normalized with DMSO control, 24 h

SMILES	Ymin (24 h) [1]	DC50 (24 h, read-out: EC50 (24 h))	Ymin (6 h) (BCL-XL degradation normalized with DMSO control, 6 h)	DC50 (6 h, read-out: EC50 (6 h))
Cc1c(O[C@H]2CC[C@H](CCCCN3CCN(c4ccc5c(C6CCC(=O)NC6=O)nn(C)c5c4)C[C@@H]3C(F)(F)F)CC2)cccc1-c1ccc(N2CCc3cccc(C(=O)Nc4nc5ccccc5s4)c3C2)nc1C(=O)O (stereo partly drawn) [Compound 346a, 6-(8-(benzo[d]thiazol-2-ylcarbamoyl)-3,4-dihydroisoquinolin-2(1H)-yl)-3-(3-(((1s,4r)-4-(4-((2R)-4-(3-(2,6-dioxopiperidin-3-yl)-1-methyl-1H-indazol-6-yl)-2-(trifluoromethyl)piperazin-1-yl)butyl)cyclohexyl)oxy)-2-methylphenyl)picolinic acid]	A (Ymin < 50%)	< 100 nM		
Cc1c(O[C@H]2CC[C@H](CC[C@H](C)N3CCN(c4cccc5c(C6CCC(=O)NC6=O)nn(C)c45)CC3)CC2)cccc1-c1ccc(N2CCc3cccc(C(=O)Nc4nc5ccccc5s4)c3C2)nc1C(=O)O (single isomer, unassigned) [Compound 283a]	A (Ymin < 50%)	< 100 nM		
Cc1c(Oc2ccccc2CCCC(=O)Nc2ccc3c(C4CCC(=O)NC4=O)nn(C)c3c2)cccc1-c1ccc(N2CCc3cccc(C(=O)Nc4nc5ccccc5s4)c3C2)nc1C(=O)O (stereo not shown) [Compound 129, 6-(8-(benzo[d]thiazol-2-ylcarbamoyl)-3,4-dihydroisoquinolin-2(1H)-yl)-3-(3-(2-(4-((3-(2,6-dioxopiperidin-3-yl)-1-methyl-1H-indazol-6-yl)amino)-4-oxobutyl)phenoxy)-2-methylphenyl)picolinic acid]	C (Ymin ≥ 70%)	< 100 nM	C (Ymin ≥ 70%)	1000 to 10000 nM
Cc1c(O[C@H]2CC[C@H](CCCCN3CCN(c4ccc5c(C6CCC(=O)NC6=O)nn(C)c5c4)[C@@H](C(F)(F)F)C3)CC2)cccc1-c1ccc(N2CCc3cccc(C(=O)Nc4nc5ccccc5s4)c3C2)nc1C(=O)O (stereo partly drawn) [Compound 339a, 6-(8-(benzo[d]thiazol-2-ylcarbamoyl)-3,4-dihydroisoquinolin-2(1H)-yl)-3-(3-(((1s,4r)-4-(4-((3R)-4-(3-(2,6-dioxopiperidin-3-yl)-1-methyl-1H-indazol-6-yl)-3-(trifluoromethyl)piperazin-1-yl)butyl)cyclohexyl)oxy)-2-methylphenyl)picolinic acid]	B (50% ≤ Ymin < 70%)	< 100 nM		
Cc1c(OCCCC2(C)CCN(CC(=O)Nc3ccc4c(C5CCC(=O)NC5=O)nn(C)c4c3)CC2)cccc1-c1ccc(N2CCc3cccc(C(=O)Nc4nc5ccccc5s4)c3C2)nc1C(=O)O (stereo not shown) [Compound 267, 6-[8-(1,3-benzothiazol-2-ylcarbamoyl)-3,4-dihydro-1H-isoquinolin-2-yl]-3-[3-[3-[1-[2-[[3-(2,6-dioxo-3-piperidyl)-1-methyl-indazol-6-yl]amino]-2-oxo-ethyl]-4-methyl-4-piperidyl]propoxy]-2-methyl-phenyl]pyridine-2-carboxylic acid]	A (Ymin < 50%)	< 100 nM		
Cc1c(OCCCC[C@H]2CCCN(CC(=O)Nc3ccc4c(C5CCC(=O)NC5=O)nn(C)c4c3)C2)cccc1-c1ccc(N2CCc3cccc(C(=O)Nc4nc5ccccc5s4)c3C2)nc1C(=O)O (stereo partly drawn) [Compound 202a, 6-[8-(1,3-benzothiazol-2-ylcarbamoyl)-3,4-dihydro-1H-isoquinolin-2-yl]-3-[3-[4-[(3S)-1-[2-[[3-(2,6-dioxo-3-piperidyl)-1-methyl-indazol-6-yl]amino]-2-oxo-ethyl]-3-piperidyl]butoxy]-2-methyl-phenyl]pyridine-2-carboxylic acid]	A (Ymin < 50%)	< 100 nM		
Cc1c(OCC[C@H]2CC23CCN(CC(=O)Nc2ccc4c(C5CCC(=O)NC5=O)nn(C)c4c2)CC3)cccc1-c1ccc(N2CCc3cccc(C(=O)Nc4nc5ccccc5s4)c3C2)nc1C(=O)O (stereo in doubt) [Compound 289b, 6-(8-(benzo[d]thiazol-2-ylcarbamoyl)-3,4-dihydroisoquinolin-2(1H)-yl)-3-(3-(2-((1R)-6-(2-((3-(2,6-dioxopiperidin-3-yl)-1-methyl-1H-indazol-6-yl)amino)-2-oxoethyl)-6-azaspiro[2.5]octan-1-yl)ethoxy)-2-methylphenyl)picolinic acid]	A (Ymin < 50%)	< 100 nM		
Cc1c(OCCCN2CCN(CC(=O)Nc3cccc4c(C5CCC(=O)NC5=O)nn(C)c34)C[C@H]2C(F)(F)F)cccc1-c1ccc(N2CCc3cccc(C(=O)Nc4nc5ccccc5s4)c3C2)nc1C(=O)O (stereo partly drawn) [Compound 246b, 6-(8-(benzo[d]thiazol-2-ylcarbamoyl)-3,4-dihydroisoquinolin-2(1H)-yl)-3-(3-(3-((2S)-4-(2-((3-(2,6-dioxopiperidin-3-yl)-1-methyl-1H-indazol-7-yl)amino)-2-oxoethyl)-2-(trifluoromethyl)piperazin-1-yl)propoxy)-2-methylphenyl)picolinic acid]	B (50% ≤ Ymin < 70%)	< 100 nM		
Cc1c(O[C@H]2CC[C@H](C[C@@H](C)CN3CCN(c4ccc5c(C6CCC(=O)NC6=O)nn(C)c5c4)CC3)CC2)cccc1-c1ccc(N2CCc3cccc(C(=O)Nc4nc5ccccc5s4)c3C2)nc1C(=O)O (single isomer, unassigned) [Compound 282a]	A (Ymin < 50%)	< 100 nM		
Cc1c(OCCCC2CCN(CCCc3ccc4c(C5CCC(=O)NC5=O)nn(C)c4c3)CC2)cccc1-c1ccc(N2CCc3cccc(C(=O)Nc4nc5ccccc5s4)c3C2)nc1C(=O)O (stereo not shown) [Compound 305, 6-(8-(benzo[d]thiazol-2-ylcarbamoyl)-3,4-dihydroisoquinolin-2(1H)-yl)-3-(3-(3-(1-(3-(3-(2,6-dioxopiperidin-3-yl)-1-methyl-1H-indazol-6-yl)propyl)piperidin-4-yl)propoxy)-2-methylphenyl)picolinic acid]	A (Ymin < 50%)	< 100 nM		
Cc1c(OCC(F)(F)CN2C[C@@H](C)N(CC(=O)N3CCN(c4ccc5c(C6CCC(=O)NC6=O)nn(C)c5c4)CC3)[C@@H](C)C2)cccc1-c1ccc(N2CCc3cccc(C(=O)Nc4nc5ccccc5s4)c3C2)nc1C(=O)O (stereo partly drawn) [Compound 185a, 6-[8-(1,3-benzothiazol-2-ylcarbamoyl)-3,4-dihydro-1H-isoquinolin-2-yl]-3-[3-[3-[(3R,5S)-4-[2-[4-[3-(2,6-dioxo-3-piperidyl)-1-methyl-indazol-6-yl]piperazin-1-yl]-2-oxo-ethyl]-3,5-dimethyl-piperazin-1-yl]-2,2-difluoro-propoxy]-2-methyl-phenyl]pyridine-2-carboxylic acid]	A (Ymin < 50%)	< 100 nM		
Cc1cc(OCC2CC3(CCN(CC(=O)Nc4ccc5c(C6CCC(=O)NC6=O)nn(C)c5c4)CC3)C2)ccc1-c1ccc(N2CCc3cccc(C(=O)Nc4nc5ccccc5s4)c3C2)nc1C(=O)O (stereo not shown) [Compound 265, 6-(8-(benzo[d]thiazol-2-ylcarbamoyl)-3,4-dihydroisoquinolin-2(1H)-yl)-3-(4-((7-(2-((3-(2,6-dioxopiperidin-3-yl)-1-methyl-1H-indazol-6-yl)amino)-2-oxoethyl)-7-azaspiro[3.5]nonan-2-yl)methoxy)-2-methylphenyl)picolinic acid]	A (Ymin < 50%)	< 100 nM		
Cc1c(Oc2ccc(CCCCN3CCN(c4ccc5c(C6CCC(=O)NC6=O)nn(C)c5c4)CC3)cc2)cccc1-c1ccc(N2CCc3cccc(C(=O)Nc4nc5ccccc5s4)c3C2)nc1C(=O)O (stereo not shown) [Compound 163, 6-(8-(benzo[d]thiazol-2-ylcarbamoyl)-3,4-dihydroisoquinolin-2(1H)-yl)-3-(3-(4-(4-(4-(3-(2,6-dioxopiperidin-3-yl)-1-methyl-1H-indazol-6-yl)piperazin-1-yl)butyl)phenoxy)-2-methylphenyl)picolinic acid]	A (Ymin < 50%)	< 100 nM		
Cc1c(OCCCC2CCN(CCN3CCC(c4ccc5c(C6CCC(=O)NC6=O)nn(C)c5c4)CC3)CC2)cccc1-c1ccc(N2CCc3cccc(C(=O)Nc4nc5ccccc5s4)c3C2)nc1C(=O)O (stereo not shown) [Compound 255, 6-[8-(1,3-benzothiazol-2-ylcarbamoyl)-3,4-dihydro-1H-isoquinolin-2-yl]-3-[3-[3-[1-[2-[4-[3-(2,6-dioxo-3-piperidyl)-1-methyl-indazol-6-yl]-1-piperidyl]ethyl]-4-piperidyl]propoxy]-2-methyl-phenyl]pyridine-2-carboxylic acid]	A (Ymin < 50%)	< 100 nM		
Cc1c(O[C@H]2CC[C@H](CCCCN3CCN(c4ccc5c(C6CCC(=O)NC6=O)nn(C)c5c4)C(C)(C)C3)CC2)cccc1-c1ccc(N2CCc3cccc(C(=O)Nc4nc5ccccc5s4)c3C2)nc1C(=O)O (stereo partly shown) [Compound 322a, 6-(8-(benzo[d]thiazol-2-ylcarbamoyl)-3,4-dihydroisoquinolin-2(1H)-yl)-3-(3-(((1s,4r)-4-(4-(4-(3-(2,6-dioxopiperidin-3-yl)-1-methyl-1H-indazol-6-yl)-3,3-dimethylpiperazin-1-yl)butyl)cyclohexyl)oxy)-2-methylphenyl)picolinic acid]	A (Ymin < 50%)	< 100 nM		
Cc1c(O[C@H]2CC[C@H](CCCCN3CCN(c4ccc5c(C6CCC(=O)NC6=O)nn(C)c5c4)[C@@H](C)C3)CC2)cccc1-c1ccc(N2CCc3cccc(C(=O)Nc4nc5ccccc5s4)c3C2)nc1C(=O)O (stereo partly drawn) [Compound 300b, 6-(8-(benzo[d]thiazol-2-ylcarbamoyl)-3,4-dihydroisoquinolin-2(1H)-yl)-3-(3-(((1r,4r)-4-(4-((3S)-4-(3-(2,6-dioxopiperidin-3-yl)-1-methyl-1H-indazol-6-yl)-3-methylpiperazin-1-yl)butyl)cyclohexyl)oxy)-2-methylphenyl)picolinic acid]	A (Ymin < 50%)	< 100 nM		
